This is an account of results in ChEMBL document CHEMBL2029201, “Synthesis of chalcone derivatives as potential anti-diabetic agents” (2012).

Molecules are shown by their SMILES.

This experiment deals with 3T3-L1. Put plainly: Antidiabetic activity in mouse 3T3L1 cells assessed as […] from cell culture medium using 450 mg/dL D-glucose at 30 ug/mL after 24 hrs (reference value: 310 +/- 4 mg/dl). The experiment is classed as functional.
For the compound `O=C(/C=C/c1cccc(OCc2ccccc2)c1)c1cccc(I)c1`, the Activity was 238 mg/dL.
The figure for `O=C(/C=C/c1ccccc1)c1ccccc1I` is 223 mg/dL.
The figure for `COc1cccc(/C=C/C(=O)c2cccc(Cl)c2)c1` is 255 mg/dL.
On to `COc1ccc(/C=C/C(=O)c2cccc(Cl)c2)cc1`, for which the Activity came to 287 mg/dL.
Under `COc1ccc(/C=C/C(=O)c2ccccc2I)cc1` stands 210 mg/dL.
The figure for `COc1ccc(/C=C/C(=O)c2ccccc2Br)cc1` is 230 mg/dL; for `COc1ccc(/C=C/C(=O)c2ccccc2Cl)cc1` it is 234 mg/dL; for `COc1cccc(/C=C/C(=O)c2ccccc2I)c1` it is 210 mg/dL.
Under `O=C(/C=C/c1ccccc1)c1cc(Cl)ccc1O` stands 236 mg/dL.
